Test results taken from paper PMC12154426, “TPP-Based Nanovesicles Kill MDR Neuroblastoma Cells and Induce Moderate ROS Increase, While Exerting Low Toxicity Towards Primary Cell Cultures: An In Vitro Study” (International Journal of Molecular Sciences, 2025).
Like-named read-outs stand apart in the source and are kept apart here.

What was measured:
HTLA 230 = assay: MTS cell viability assay on HTLA 230 NB cells; type: cell-based, human; settings: for cytotoxic effects vs. HTLA 230 higher than vs. HTLA ER: from IC50 values
Experimental: In this section, the strong anticancer effect of BPPB against ETO-sensitive HTLA 230 and multidrug-resistant (MDR) HTLA ER neuroblastoma (NB) cells previously reported was confirmed. Cell viability in HTLA 230 and HTLA ER cells exposed to increasing concentrations of BPPB for 24, 48, and 72 h was assessed by using the MTS essay, which is an efficient, eco- and user-friendly tool, commonly used to investigate the behaviour of cancer cells when exposed to specific treatments and how these treatments influence their growth and viability.
Following this, µM concentrations (x) were transformed in Log10 (x) (Figure 1e (HTLA 230) and Figure 1f (HTLA ER), traces with indicators and error bar). The nonlinear regression models of the Log10 (BPPB concentrations) vs. the normalized response (Hill Slope) shown in Figure 1e (HTLA 230) and Figure 1f (HTLA ER), traces without indicators, elaborated by GraphPad Prism software version 8.0.1 (GraphPad Software, Boston, MA, USA), gave us the IC50 values of BPPB for both cell populations at 24, 48, and 72 h of treatment.
HTLA 230 is a MYCN-amplified human stage-IV NB cell line, obtained from the G. Gaslini Institute, Genoa, Italy. The cytogenetic features of the HTLA 230 cell line include […] MYCN amplification, del(11)t(11;Y), balanced translocation t(1;17)(p36;q21), and dup(11p), which were previously described by Pezzolo et al.. Cells were periodically tested for mycoplasma contamination (Mycoplasma Reagent Set, Aurogene s.p.a, Pavia, Italy). After thawing and eight passages in the culture, cell morphology and proliferation were analyzed. […] Both cell populations were cultured in RPMI 1640 (Euroclone SpA, Pavia, Italy) supplemented with 10% fetal bovine serum (FBS; Euroclone, Pavia, Italy), 2 mM glutamine (Euroclone, Pavia, Italy), 1% penicillin/streptomycin (Euroclone, Pavia, Italy), 1% sodium pyruvate (Sigma-Aldrich, Sant Louis, MO, USA), and 1% amino acid solution (Sigma).
To determine the cytotoxic effects of BPPB, in vitro time- and dose-dependent experiments were carried out, as recently described. Briefly, cells were treated for 24, 48, and 72 h, with increasing concentrations (0.1–2.0 µM) of the compound. […] Cell cultures were carefully monitored before and during the experiments to ensure optimal cell density.
Cell viability was determined by using the CellTiter 96® AQueous One Solution Cell Proliferation MTS Assay (Promega, Madison, WI, USA), as previously described. MTS is a colorimetric method commonly used for determining cell viability. The cell survival rate, expressed as the cell viability percentage (%), was evaluated based on the experimental outputs of treated cells vs. the untreated ones (CTRs), and was calculated as follows: cell viability (%) = (OD treated cells − OD blank)/(OD untreated cells − OD blank) × 100%. IC50 values were calculated by GraphPad Prism 8.0.1 Software (GraphPad Software v8.0, San Diego, CA, USA), as detailed in the Results and Discussion in Section 2.

HTLA ER = assay: DCFH assay of ROS (H2O2) production, HTLA ER; type: cell-based, human
Description: It has been reported that the administration of TPP-based compounds, including TPP-based bola amphiphilic nanovesicles such as BPPB, induce ROS overproduction, thus causing oxidative stress (OS), which has been widely reported to be involved in the anticancer effect of several chemotherapeutic drugs, including etoposide, doxorubicin [38], and cisplatin [39]. […] On the contrary, the role of ROS was scarcely present in PLX-resistant CMM cells exposed to the same concentrations of BPPB [13]. With these considerations, we evaluated ROS levels also in NB cells treated with BPPB, since this experiment would have been particularly helpful to understand whether (i) these nanovesicles’ preparation exerts its cytotoxic action on HTLA 230 and ER cells through ROS production, as in PLX-sensitive CMM cells; or (ii) the resistance acquired by HTLA ER based on high levels of antioxidants, following chronic treatment with etoposide, conferred resistance also to a preparation based on the use of nanovesicles (BPPBs). Moreover, the evaluation of ROS levels can be an indirect method to ascertain and confirm the presence of apoptosis, since as reported, low levels of ROS induce apoptosis and high levels induce necrosis.Therefore, to investigate the pro-oxidant action of BPPB also in HTLA 230 and HTLA ER NB cells, ROS levels were evaluated in both NB cell populations exposed for 24–72 h to increasing concentrations (0.1–2 µM) of BPPB using the DCFH essay (Figure 4). The results were reported as a percentage of cells positive to DCFH normalized for protein content. Raw fluorescence data are, in fact, not applicable since an increase in fluorescence could be due to a high number of cells but also to an increased production of H2O2 induced by the treatments. This is the reason why it is necessary to normalize the fluorescence data to the protein content. Other cellular assays measuring oxidative damage, including lipid peroxidation or protein carbonylation, are likely too complex for low-tier early hazard assessment or hazard screening. Conversely, the cellular DCFH assay is a simpler and widely used alternative, which measures intracellular ROS production by forming a fluorescent product (DCF) upon oxidation by free radicals produced by cells.
The production of H2O2 was evaluated using 2′-7′-dichlorofluorescein-diacetate (DCFH-DA; Merk Life Science S.r.l. Milan, Italy), as previously reported. Briefly, NB cells (10^4 cells/well) were seeded in 96-well plates (Corning) and treated. Then, cells were stained with 2′-7′ di-chloro-fluorescein-diacetate (DCFH-DA; Sigma-Aldrich) and incubated with 90% DMSO for an additional 10 min in the dark. The generated fluorescence intensity was monitored with a Perkin Elmer fluorometer (Perkin Elmer Life and Analytical Sciences, Shelton, WA, USA) at 485/530 nm excitation/emission. Values were normalized to the protein content.

## c1ccc([P+](CCCCCCCCCCCC[P+](c2ccccc2)(c2ccccc2)c2ccccc2)(c2ccccc2)c2ccccc2)cc1 [BPPB, 1,1-(1,12-dodecanediyl)-bis-[1,1,1]-triphenyl phosphonium di-bromide]
HTLA 230; 0.25 µM, 72 h
  cell viability: 47.6%
HTLA 230; 0.5 µM, 48 h
  cell viability: 41.8%
HTLA 230; 0.75 µM, 24 h
  cell viability: 42.5%
HTLA 230; 24 h
  concentration causing significant reduction in cells' viability: ≥ 0.5 µM
  cytotoxic effects vs. HTLA 230 higher than vs. HTLA ER: 25.3%
HTLA 230; 24 h, concentrations ≥ 0.75 µM up to 2 µM
  cell viability: 39.3–45.3%
HTLA 230; 24 h exposure, 0.1–2 µM, read-out: IC50 HTLA 230
  IC50: 0.926 ± 0.164 µM
HTLA 230; 48 h
  concentration causing significant reduction in cells' viability: ≥ 0.1 µM
  cytotoxic effects vs. HTLA 230 higher than vs. HTLA ER: 65.9%
HTLA 230; 48 h, concentrations ≥ 0.5 µM up to 2 µM
  cell viability: 36.2–41.9%
HTLA 230; 48 h exposure, 0.1–2 µM, read-out: IC50 HTLA 230
  IC50: 0.462 ± 0.103 µM
HTLA 230; 72 h
  concentration causing significant reduction in cells' viability: ≥ 0.25 µM
  cytotoxic effects vs. HTLA 230 higher than vs. HTLA ER: 67.5%
HTLA 230; 72 h, lowest value reached with increasing concentrations (up to 2 µM)
  cell viability: 21.7%
HTLA 230; 72 h exposure, 0.1–2 µM, read-out: IC50 HTLA 230
  IC50: 0.389 ± 0.0836 µM
HTLA 230; HTLA 230 and HTLA ER vs. SH-SY5Y, 24 h
  more cytotoxic than TiO2-Ta nanoparticles: 64–86 fold
HTLA 230; HTLA 230 and HTLA ER, 24 h
  anticancer effects higher than compound 3 with PDT/SDT: 10.3–14.7 times
  more potent than Ag20Pep: 105–143 times
  more potent than Ag40Pep: 132–182 times
HTLA 230; HTLA 230 and HTLA ER, 48 h
  more potent than Ag20Pep: 18–54 times
  more potent than Ag40Pep: 29–90 times
HTLA 230; HTLA 230 and HTLA ER, 72 h
  cytotoxicity higher than that of compounds 9–13 of Skrzypczak et al.: 1.7–5.1 fold
  more cytotoxic than AgNPs: 4–30 times
HTLA 230; over 24, 48, 72 h exposure, read-out: IC50 values towards drug-sensitive HTLA 230
  IC50: 0.4 to 0.9 µM
HTLA ER; 24 h
  concentration significantly inducing ROS overproduction: 1.25 µM
  concentrations that did not induce significant changes in ROS levels: ≤ 1 µM
HTLA ER; 24 h, normalized for protein content, control = 1
  highest value of DCFH-positive cells: 4.92
HTLA ER; 24 h exposure
  increase in ROS with respect to the control: > 4 times
HTLA ER; 48 h
  concentrations that did not induce significant changes in ROS levels: ≤ 1.25 µM
HTLA ER; 48 h, normalized for protein content, control = 1
  highest value of DCFH-positive cells: 3.67
HTLA ER; 72 h
  concentrations that did not induce significant changes in ROS levels: ≤ 0.75 µM
  maximal DCFH value in HTLA ER lower than in HTLA 230: 1.16 times
HTLA ER; 72 h, normalized for protein content, control = 1
  maximal value of DCFH-positive cells: 4.99
